Experimental data: patent US10724000B2, “Small molecule based conversion of somatic cells into neural crest cells” (Hoffmann-La Roche Inc., priority 2013, dated 2020)

Legend:
[1] = target: T1, PKA (Homo sapiens, UniProt P17612); assay: Kinase selectivity profiling (ProfilerPro Kinase Kits); assay type: biochemical; settings: FIG. 1C
T1 construct: purchased Caliper (PerkinElmer) ProfilerPro Kinase Kits
Experimental: (§1) Kinase Selectivity Profiling Kinase selectivity profiling was performed using ProfilerPro Kinase Kits from Caliper (PerkinElmer) according to the manufacturer's instructions.

[2] = target: T2, MSK1 (Homo sapiens, UniProt O75582); assay: as above; assay type: biochemical; settings: FIG. 1C
T2 construct: purchased Caliper (PerkinElmer) ProfilerPro Kinase Kits
Experimental: as §1

[3] = tested on: AMPK; assay: as above; assay type: biochemical; settings: FIG. 1C
Experimental: as §1

[4] = target: T3, SGK1 (Homo sapiens, UniProt O00141); assay: as above; assay type: biochemical; settings: FIG. 1C
T3 construct: purchased Caliper (PerkinElmer) ProfilerPro Kinase Kits
T3 sequence (O00141 1-431): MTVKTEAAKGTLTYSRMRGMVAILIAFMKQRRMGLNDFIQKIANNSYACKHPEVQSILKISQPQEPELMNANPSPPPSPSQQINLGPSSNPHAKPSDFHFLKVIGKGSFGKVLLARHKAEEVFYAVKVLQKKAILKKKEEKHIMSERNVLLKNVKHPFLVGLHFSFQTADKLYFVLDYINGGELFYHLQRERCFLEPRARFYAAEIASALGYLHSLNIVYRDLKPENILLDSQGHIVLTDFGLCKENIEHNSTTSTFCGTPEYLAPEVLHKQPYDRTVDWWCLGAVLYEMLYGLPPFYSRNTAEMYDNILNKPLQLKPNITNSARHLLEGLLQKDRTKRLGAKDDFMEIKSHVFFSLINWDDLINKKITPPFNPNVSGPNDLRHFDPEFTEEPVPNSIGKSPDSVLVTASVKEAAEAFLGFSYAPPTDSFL
Experimental: as §1

[5] = target: T4, ROCK2 (Homo sapiens, UniProt O75116); assay: as above; assay type: biochemical; settings: FIG. 1C
T4 construct: purchased Caliper (PerkinElmer) ProfilerPro Kinase Kits
Experimental: as §1

[6] = target: T5, PKGa (Homo sapiens, UniProt Q13976); assay: as above; assay type: biochemical; settings: FIG. 1C
T5 construct: purchased Caliper (PerkinElmer) ProfilerPro Kinase Kits
T5 sequence (Q13976 1-671): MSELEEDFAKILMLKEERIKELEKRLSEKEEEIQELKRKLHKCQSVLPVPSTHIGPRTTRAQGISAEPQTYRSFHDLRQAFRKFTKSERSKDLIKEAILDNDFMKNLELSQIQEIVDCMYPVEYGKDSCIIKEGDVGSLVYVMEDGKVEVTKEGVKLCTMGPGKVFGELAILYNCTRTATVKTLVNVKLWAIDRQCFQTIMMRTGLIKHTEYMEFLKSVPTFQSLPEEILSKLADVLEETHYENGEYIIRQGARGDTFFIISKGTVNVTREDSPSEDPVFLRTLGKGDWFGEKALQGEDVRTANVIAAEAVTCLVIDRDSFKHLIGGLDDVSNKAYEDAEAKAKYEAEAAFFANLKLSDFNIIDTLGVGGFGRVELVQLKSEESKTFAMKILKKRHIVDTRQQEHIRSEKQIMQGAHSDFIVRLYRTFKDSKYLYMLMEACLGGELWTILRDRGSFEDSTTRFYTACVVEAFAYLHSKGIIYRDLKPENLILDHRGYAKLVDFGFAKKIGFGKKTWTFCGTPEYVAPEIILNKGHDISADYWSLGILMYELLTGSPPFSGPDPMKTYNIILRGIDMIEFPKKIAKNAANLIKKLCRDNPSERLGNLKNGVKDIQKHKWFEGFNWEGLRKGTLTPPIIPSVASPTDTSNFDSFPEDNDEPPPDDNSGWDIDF
Experimental: as §1

[7] = tested on: SCC058 foreskin fibroblasts; assay: Sphere formation assay of fibroblasts in suspension culture; assay type: cell-based, human; settings: day 3, FIG. 1B, 1D
Experimental: SCC058 foreskin fibroblasts (Millipore) were cultured at 37° C. and 5% CO2 in low serum FibroGro (Millipore). For conversion, 7300 cells/cm^2 were seeded in fibroblast medium containing 1 mM Valproic acid (VPA, Sigma). Then, cells were treated for two days with 1 mM VPA, and 6 μg/ml polybrene (Millipore) and subsequently transferred to low attachment plates in NSC medium for sphere formation. NSC medium consisted of NeuroCult NS-A proliferation medium (StemCell Technologies) supplemented with Penicillin/streptomycin, bFGF (20 ng/ml), EGF (20 ng/ml), BDNF (20 ng/ml), Heparin (2 μg/ml), D114 (500 ng/ml), Jagged1 (500 ng/ml), SHH (500 ng/ml, peprotech), Ascorbic Acid (0.2 mM, Sigma), FGF8a (100 ng/ml), 10% NSC-CM (medium conditioned by ESC-NSCs), and Compound B (2 μM, Roche).
• [3R,4R]-N-{4-[4-(2-Fluoro-6-hydroxy-3-methoxy-benzoyl)-benzoyl amino]-azep+an-3-yl}-4-hydroxy-3,5-dimethyl-benzamide hydrochlorid All growth factors were from R&D systems if not indicated otherwise. To compare effects of other inhibitors, Compound B was replaced by 2 μM Dorsomorphin, 10 uM H89 (Tocris), 10 μM Y27632, or 10 μM GSK650394 (Tocris), respectively. After four days, spheres were dissociated with Accutase and single cells were seeded in low attachment plates in NSC medium supplemented with inhibitor mix comprising 500 ng/ml Noggin (peprotech), 10 μM SB431452 (Tocris), and 1 μM CP21 (Roche).

[8] = tested on: fibroblast-derived secondary spheres; assay: Attachment of secondary spheres to laminin substrate (POL); assay type: cell-based, human; settings: two hours after plating on POL; FIG. 6
Experimental: • [3R,4R]-N-{4-[4-(2-Fluoro-6-hydroxy-3-methoxy-benzoyl)-benzoyl amino]-azep+an-3-yl}-4-hydroxy-3,5-dimethyl-benzamide hydrochlorid All growth factors were from R&D systems if not indicated otherwise. To compare effects of other inhibitors, Compound B was replaced by 2 μM Dorsomorphin, 10 uM H89 (Tocris), 10 μM Y27632, or 10 μM GSK650394 (Tocris), respectively. After four days, spheres were dissociated with Accutase and single cells were seeded in low attachment plates in NSC medium supplemented with inhibitor mix comprising 500 ng/ml Noggin (peprotech), 10 μM SB431452 (Tocris), and 1 μM CP21 (Roche). After 3 days, secondary spheres were seeded on polyornithine-laminin (POL) coated dishes. After attachment (24 hours), medium was replaced with differentiation medium comprising N2B27 (1:1 DMEM/F12 and Neurobasal with beta-mercaptoethanol (50 μM), B27 supplement without vitamin A (1:50, Invitrogen), and N2 supplement (1:100, Invitrogen)) supplemented with antibiotics, BDNF (20 ng/ml), GDNF (20 ng/ml), Laminin ([…]), Ascorbic Acid (0.2 mM) and dibutyryl-cAMP (0.5 mM, Sigma). Every other day, 50% of medium was exchanged. For the first seven days of differentiation, medium was supplemented with the inhibitor mix.

[9] = tested on: mesenchymal stem cells; assay: Mesenchymal stem cell proliferation; assay type: cell-based; settings: FIG. 1A
[10] = tested on: ESC-NSCs; assay: Neural stem cell proliferation, ATP assay (CellTiterGlo); assay type: cell-based, human; settings: ATP assay after four days, FIG. 1A
Experimental: Embryonic stem cell-derived neural stem cells (ESC-NSCs) were generated as previously described using dual SMAD inhibition protocol (Chambers et al., 2009). NSCs were cultured on POL coated plates at 37° C., 5% CO2 in N2B27 supplemented with bFGF (10 ng/ml), EGF (10 ng/ml), BDNF (20 ng/ml). For Compound B identification, NSCs were seeded on POL coated plates at 21000 cells/cm^2 in N2B27. After cell attachment (4 h), compounds were added at indicated concentrations. Negative control cells were treated with DMSO. Cells were incubated for four days and subsequently the amount of ATP was determined using the CellTiterGlo® kit (Promega) according to the manufacturer's instructions.

T4 sequence (O75116 whole entry, species assumed): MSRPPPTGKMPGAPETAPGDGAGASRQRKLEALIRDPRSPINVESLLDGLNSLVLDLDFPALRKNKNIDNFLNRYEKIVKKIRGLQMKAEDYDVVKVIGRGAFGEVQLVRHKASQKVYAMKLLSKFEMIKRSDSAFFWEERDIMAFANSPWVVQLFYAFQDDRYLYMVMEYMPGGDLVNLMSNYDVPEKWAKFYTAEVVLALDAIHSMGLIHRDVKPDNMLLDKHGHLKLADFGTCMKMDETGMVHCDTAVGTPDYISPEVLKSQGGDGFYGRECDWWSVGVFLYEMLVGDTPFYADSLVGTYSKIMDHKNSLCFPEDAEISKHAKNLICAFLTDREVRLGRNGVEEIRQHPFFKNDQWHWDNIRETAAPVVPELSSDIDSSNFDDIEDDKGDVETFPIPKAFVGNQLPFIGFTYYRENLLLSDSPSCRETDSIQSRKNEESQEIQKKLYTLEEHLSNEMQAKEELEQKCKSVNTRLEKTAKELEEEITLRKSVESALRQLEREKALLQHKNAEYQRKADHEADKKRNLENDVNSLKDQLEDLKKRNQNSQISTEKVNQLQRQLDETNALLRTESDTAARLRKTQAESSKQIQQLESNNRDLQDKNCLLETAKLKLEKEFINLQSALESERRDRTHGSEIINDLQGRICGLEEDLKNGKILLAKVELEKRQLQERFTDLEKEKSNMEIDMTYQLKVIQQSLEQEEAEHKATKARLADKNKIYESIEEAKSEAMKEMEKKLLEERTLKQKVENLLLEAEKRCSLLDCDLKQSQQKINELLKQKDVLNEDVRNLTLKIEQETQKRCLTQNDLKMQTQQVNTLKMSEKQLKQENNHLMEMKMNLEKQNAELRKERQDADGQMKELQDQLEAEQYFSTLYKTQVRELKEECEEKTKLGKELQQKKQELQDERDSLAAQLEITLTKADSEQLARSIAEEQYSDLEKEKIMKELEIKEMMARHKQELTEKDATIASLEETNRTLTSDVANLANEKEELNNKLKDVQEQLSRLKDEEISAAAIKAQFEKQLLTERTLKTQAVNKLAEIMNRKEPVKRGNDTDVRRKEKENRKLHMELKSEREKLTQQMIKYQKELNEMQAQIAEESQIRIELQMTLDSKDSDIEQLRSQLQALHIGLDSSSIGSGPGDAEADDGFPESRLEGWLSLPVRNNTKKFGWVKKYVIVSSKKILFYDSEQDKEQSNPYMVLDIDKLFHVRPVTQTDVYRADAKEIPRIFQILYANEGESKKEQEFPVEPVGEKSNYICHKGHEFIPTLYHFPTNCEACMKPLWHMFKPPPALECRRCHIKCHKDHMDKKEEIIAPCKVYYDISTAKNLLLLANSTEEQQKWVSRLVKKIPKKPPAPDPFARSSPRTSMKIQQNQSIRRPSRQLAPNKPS
T2 sequence (O75582 whole entry, species assumed): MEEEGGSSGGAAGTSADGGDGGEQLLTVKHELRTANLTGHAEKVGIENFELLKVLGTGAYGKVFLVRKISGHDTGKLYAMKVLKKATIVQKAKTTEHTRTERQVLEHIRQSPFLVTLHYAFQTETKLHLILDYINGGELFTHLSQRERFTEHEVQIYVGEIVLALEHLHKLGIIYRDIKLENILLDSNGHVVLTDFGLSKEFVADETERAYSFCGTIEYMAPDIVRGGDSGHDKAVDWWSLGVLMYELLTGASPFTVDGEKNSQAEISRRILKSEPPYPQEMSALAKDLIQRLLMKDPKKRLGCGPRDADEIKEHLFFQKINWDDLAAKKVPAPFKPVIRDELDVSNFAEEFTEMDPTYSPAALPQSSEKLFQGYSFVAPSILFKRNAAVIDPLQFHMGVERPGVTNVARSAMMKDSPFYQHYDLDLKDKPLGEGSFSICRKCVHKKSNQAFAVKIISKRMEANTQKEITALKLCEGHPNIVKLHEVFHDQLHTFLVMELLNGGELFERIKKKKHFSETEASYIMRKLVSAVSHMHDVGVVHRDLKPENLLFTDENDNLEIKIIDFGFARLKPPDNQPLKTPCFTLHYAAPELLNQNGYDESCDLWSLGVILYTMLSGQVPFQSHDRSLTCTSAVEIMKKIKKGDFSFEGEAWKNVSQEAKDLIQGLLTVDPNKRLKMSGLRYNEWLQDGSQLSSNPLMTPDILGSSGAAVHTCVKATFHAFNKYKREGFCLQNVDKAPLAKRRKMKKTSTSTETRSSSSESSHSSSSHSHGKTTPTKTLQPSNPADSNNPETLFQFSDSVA

Row | inhibition of PKA [1] | inhibition of MSK1 [2] | inhibition of AMPK [3] | inhibition of SGK1 [4] | inhibition of ROCK2 [5] | inhibition of PKGa [6] | SMILES | sphere size [7] | total cell number in suspension culture [7] | attachment and migration of spheres on laminin substrate [8] | effect on mesenchymal stem cells (proliferation) [9] | proliferation of neural stem cells [10]
1 | over 80% | over 80% | over 80% | over 80% | over 80% | over 80% | COc1ccc(O)c(C(=O)c2ccc(C(=O)N[C@@H]3CCCNC[C@H]3NC(=O)c3cc(C)c(O)c(C)c3)cc2)c1F.Cl [Compound B, N-{(3R,4R)-4-[4-(2-Fluoro-6-hydroxy-3-methoxy-benzoyl)-benzoylamino]-azepan-3-yl}-4-hydroxy-3,5-dimethyl-benzamide] | significant increase | significant increase | have attached and started to migrate | no effect | promoted proliferation of ESC-NSCs in a dose-dependent manner
2 | – | – | – | – | – | – | O=S(=O)(NCCNC/C=C/c1ccc(Br)cc1)c1cccc2cnccc12 [Compound H89, reference compound] | increase in sphere size, albeit not at the same extent as Compound B | – | – | – | –
3 | – | – | – | – | – | – | C[C@@H](N)[C@H]1CC[C@H](C(=O)Nc2ccncc2)CC1 [Compound Y27142, reference compound] | increase in sphere size, albeit not at the same extent as Compound B | – | – | – | –
